Legend:
[1] = molecular target: T1, Alpha-2C adrenergic receptor (Homo sapiens, UniProt P18825); assay type: functional
T1 sequence (P18825 whole entry): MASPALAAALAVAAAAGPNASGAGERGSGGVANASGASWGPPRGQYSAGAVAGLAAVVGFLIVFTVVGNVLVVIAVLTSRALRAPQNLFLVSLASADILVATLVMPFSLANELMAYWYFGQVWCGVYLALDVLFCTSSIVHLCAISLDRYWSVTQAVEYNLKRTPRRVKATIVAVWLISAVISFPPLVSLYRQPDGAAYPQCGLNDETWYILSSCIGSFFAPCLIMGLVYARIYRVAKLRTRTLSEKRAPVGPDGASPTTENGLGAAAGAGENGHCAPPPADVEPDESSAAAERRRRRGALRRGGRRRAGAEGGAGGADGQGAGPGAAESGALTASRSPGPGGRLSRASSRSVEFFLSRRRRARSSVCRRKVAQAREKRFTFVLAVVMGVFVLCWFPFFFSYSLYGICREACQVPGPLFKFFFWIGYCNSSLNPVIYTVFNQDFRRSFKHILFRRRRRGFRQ

[2] = molecular target: T2, Type-1 angiotensin II receptor (Homo sapiens, UniProt P30556)
T2 sequence (P30556 whole entry): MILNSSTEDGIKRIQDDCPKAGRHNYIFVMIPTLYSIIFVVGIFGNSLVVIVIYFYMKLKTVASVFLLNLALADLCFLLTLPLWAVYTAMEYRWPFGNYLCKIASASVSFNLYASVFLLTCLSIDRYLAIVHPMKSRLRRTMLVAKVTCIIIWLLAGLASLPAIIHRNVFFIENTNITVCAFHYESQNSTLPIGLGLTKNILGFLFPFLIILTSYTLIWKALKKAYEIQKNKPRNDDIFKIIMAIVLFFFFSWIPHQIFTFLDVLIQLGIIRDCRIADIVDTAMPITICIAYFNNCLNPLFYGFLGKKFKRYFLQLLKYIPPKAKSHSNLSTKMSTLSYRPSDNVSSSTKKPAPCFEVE

B2 bradykinin receptor = molecular target: T3, B2 bradykinin receptor (Homo sapiens, UniProt P30411)
T3 sequence (P30411 whole entry): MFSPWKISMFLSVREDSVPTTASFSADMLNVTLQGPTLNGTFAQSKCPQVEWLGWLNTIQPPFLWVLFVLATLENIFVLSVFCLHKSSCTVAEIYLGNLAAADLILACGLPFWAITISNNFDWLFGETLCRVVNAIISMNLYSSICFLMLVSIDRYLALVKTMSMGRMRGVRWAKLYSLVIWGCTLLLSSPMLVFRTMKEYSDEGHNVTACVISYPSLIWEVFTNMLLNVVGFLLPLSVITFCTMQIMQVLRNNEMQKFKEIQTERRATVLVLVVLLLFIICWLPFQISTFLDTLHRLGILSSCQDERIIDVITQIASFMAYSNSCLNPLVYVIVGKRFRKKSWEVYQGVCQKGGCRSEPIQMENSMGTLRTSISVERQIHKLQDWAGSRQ

[3] = molecular target: T4, Muscarinic acetylcholine receptor M1 (Homo sapiens, UniProt P11229); assay type: functional
T4 sequence (P11229 whole entry): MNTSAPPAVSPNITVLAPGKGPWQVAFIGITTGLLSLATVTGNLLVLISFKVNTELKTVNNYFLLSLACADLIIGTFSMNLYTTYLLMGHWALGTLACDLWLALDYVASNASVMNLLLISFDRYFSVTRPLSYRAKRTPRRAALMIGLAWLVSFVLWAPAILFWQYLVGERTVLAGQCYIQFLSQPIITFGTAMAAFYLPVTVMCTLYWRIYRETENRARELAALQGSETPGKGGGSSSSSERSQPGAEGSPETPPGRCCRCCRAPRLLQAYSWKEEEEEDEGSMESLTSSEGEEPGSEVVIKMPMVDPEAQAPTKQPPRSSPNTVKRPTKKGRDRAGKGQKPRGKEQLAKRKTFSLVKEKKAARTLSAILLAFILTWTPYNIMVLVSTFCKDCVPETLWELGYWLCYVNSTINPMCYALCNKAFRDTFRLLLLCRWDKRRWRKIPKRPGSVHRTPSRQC

[4] = molecular target: T5, Muscarinic acetylcholine receptor M2 (Homo sapiens, UniProt P08172); assay type: functional, cell-based
T5 sequence (P08172 whole entry): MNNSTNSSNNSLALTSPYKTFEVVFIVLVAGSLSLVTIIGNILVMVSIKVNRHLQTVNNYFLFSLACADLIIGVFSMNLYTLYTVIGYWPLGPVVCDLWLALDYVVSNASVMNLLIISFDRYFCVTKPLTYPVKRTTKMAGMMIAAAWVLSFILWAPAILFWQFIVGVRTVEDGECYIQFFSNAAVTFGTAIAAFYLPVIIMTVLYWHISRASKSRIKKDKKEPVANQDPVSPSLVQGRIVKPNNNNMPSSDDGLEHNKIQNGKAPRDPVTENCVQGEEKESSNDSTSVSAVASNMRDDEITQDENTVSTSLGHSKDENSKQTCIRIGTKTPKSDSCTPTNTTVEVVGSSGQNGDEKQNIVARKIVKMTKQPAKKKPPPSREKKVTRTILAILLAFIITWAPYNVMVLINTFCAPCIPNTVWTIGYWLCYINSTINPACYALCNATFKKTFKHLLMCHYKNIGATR

Mu-type opioid receptor = Mu-type opioid receptor (Homo sapiens, UniProt P35372)
[5] = molecular target: T6, 5-hydroxytryptamine receptor 1A (Homo sapiens, UniProt P08908); assay type: functional, cell-based
T6 sequence (P08908 whole entry): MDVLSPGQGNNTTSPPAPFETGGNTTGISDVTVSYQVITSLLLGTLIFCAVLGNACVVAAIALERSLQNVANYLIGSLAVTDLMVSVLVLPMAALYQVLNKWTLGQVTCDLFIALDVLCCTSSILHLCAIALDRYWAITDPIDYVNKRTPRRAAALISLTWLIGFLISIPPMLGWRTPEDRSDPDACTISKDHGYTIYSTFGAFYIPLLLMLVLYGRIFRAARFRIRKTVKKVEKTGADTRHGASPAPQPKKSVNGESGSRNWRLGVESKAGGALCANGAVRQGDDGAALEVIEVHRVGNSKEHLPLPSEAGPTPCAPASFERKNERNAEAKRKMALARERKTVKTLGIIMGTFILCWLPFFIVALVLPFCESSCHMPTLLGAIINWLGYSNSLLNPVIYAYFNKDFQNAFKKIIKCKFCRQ
Also: assay procedure not described here.

Mu-type opioid receptor, sequence (P35372 whole entry): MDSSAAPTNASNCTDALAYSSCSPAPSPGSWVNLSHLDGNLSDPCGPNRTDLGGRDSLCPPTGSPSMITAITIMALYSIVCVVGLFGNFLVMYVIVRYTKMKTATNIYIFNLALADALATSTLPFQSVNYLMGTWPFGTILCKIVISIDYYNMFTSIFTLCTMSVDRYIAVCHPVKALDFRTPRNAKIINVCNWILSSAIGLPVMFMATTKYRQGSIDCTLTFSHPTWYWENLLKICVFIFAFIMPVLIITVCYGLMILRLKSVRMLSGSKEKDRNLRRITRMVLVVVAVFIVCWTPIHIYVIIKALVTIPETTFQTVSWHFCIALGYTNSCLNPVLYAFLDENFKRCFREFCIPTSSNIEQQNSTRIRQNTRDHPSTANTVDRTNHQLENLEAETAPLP

SMILES | AC50 [1] [µM] | AC50 [2] [µM] | AC50 (B2 bradykinin receptor) [µM] | AC50 [3] [µM] | AC50 [4] [µM] | AC50 (Mu-type opioid receptor) [µM] | AC50 [5] [µM]
CC(=O)OCC(=O)[C@@]1(O)CC[C@H]2[C@@H]3CCC4=CC(=O)CC[C@]4(C)C3=CC[C@@]21C [ANECORTAVE ACETATE] | > 10 | > 10 | > 10 | > 10 | > 10 | > 30 | 
NS(=O)(=O)c1cc2c(cc1C(F)(F)F)NC(Cc1ccccc1)NS2(=O)=O (stereo unspecified) [BENDROFLUMETHIAZIDE] | > 10 | > 10 | > 10 | > 10 | > 10 | > 30 | > 10
CCN(CC)C(=O)C1CN2CCc3cc(OC)c(OC)cc3C2CC1OC(C)=O (stereo unspecified) [BENZQUINAMIDE] | 1.7 | > 30 | > 30 | > 30 | > 30 | > 30 | 
CCCC(C)(COC(N)=O)COC(=O)NC(C)C (stereo unspecified) [CARISOPRODOL] | > 10 | > 30 | > 30 | > 10 | > 10 | > 30 | > 10
N[C@H](Cc1cc(I)c(Oc2cc(I)c(O)c(I)c2)c(I)c1)C(=O)O [DEXTROTHYROXINE] | > 10 | > 30 | > 30 | > 10 | > 10 | > 30 | 8.2
Clc1ccc2c(c1)C(c1ccccc1)=NCc1nncn1-2 [ESTAZOLAM] | > 10 | > 30 | > 30 | > 10 | > 10 | > 30 | > 10
O=C(O)c1ccccc1Nc1cccc(C(F)(F)F)c1 [FLUFENAMIC ACID] | > 10 | > 30 | > 30 | 0.54 | > 10 | > 30 | 15
Nc1ccn([C@@H]2O[C@H](CO)[C@@H](O)C2(F)F)c(=O)n1 [GEMCITABINE] | > 10 | > 30 | > 30 |  | > 10 | > 30 | > 10
COC1=C(OC)C(=O)C(CCCCCCCCCCO)=C(C)C1=O [IDEBENONE] | > 10 | > 30 | > 30 |  | > 10 | > 10 | > 10
CC#CCn1c(N2CCC[C@@H](N)C2)nc2c1c(=O)n(Cc1nc(C)c3ccccc3n1)c(=O)n2C [LINAGLIPTIN] | > 10 | > 30 | > 30 | > 10 |  | > 30 | 
CC(=O)Nc1c(I)c(C(=O)N[C@H]2C(O)O[C@H](CO)[C@@H](O)[C@@H]2O)c(I)c(N(C)C(C)=O)c1I (stereo partly specified) [METRIZAMIDE] | > 10 | > 10 | > 10 | > 10 | > 10 | > 30 | > 10

Reference: ChEMBL document CHEMBL5291721, “A preclinical secondary pharmacology resource illuminates target-adverse drug reaction associations of marketed drugs” (Nat Commun, 2023)
